Active and inactive are the calls of the source.
Columns and labels:
[1] = target: Alkaline phosphatase, placental type (Homo sapiens, UniProt P05187); assay: PLAP enzyme inhibitors, confirmation, biochemical, luminescence (AID 1512); type: functional
[2] = target: T1, Alkaline phosphatase, tissue-nonspecific isozyme (Homo sapiens, UniProt P05186); assay: human TNAP enzyme inhibitors, SAR follow-up, biochemical, luminescent, dose response (AID 1056)
T1 sequence (P05186 whole entry): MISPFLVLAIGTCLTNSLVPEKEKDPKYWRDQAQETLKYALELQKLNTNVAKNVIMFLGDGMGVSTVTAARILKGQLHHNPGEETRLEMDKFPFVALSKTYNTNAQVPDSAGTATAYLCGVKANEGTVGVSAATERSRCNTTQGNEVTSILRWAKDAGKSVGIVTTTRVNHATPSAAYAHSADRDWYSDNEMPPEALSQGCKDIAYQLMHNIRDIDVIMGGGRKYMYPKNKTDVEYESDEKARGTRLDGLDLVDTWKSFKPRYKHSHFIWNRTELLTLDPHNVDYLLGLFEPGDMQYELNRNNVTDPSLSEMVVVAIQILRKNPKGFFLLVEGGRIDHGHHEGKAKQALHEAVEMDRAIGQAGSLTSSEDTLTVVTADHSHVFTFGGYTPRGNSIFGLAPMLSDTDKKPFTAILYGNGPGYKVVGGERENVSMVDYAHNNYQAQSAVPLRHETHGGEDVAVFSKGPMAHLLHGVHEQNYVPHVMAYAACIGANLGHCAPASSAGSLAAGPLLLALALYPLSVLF

Cytochrome P450 2C9 = Cytochrome P450 2C9 (Homo sapiens, UniProt P11712)
Cytochrome P450 2D6 = Cytochrome P450 2D6 (Homo sapiens, UniProt P10635);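 further: CYP2D6 member of a cytochrome P450 panel assay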
Sequence of Cytochrome P450 2D6 (P10635 whole entry): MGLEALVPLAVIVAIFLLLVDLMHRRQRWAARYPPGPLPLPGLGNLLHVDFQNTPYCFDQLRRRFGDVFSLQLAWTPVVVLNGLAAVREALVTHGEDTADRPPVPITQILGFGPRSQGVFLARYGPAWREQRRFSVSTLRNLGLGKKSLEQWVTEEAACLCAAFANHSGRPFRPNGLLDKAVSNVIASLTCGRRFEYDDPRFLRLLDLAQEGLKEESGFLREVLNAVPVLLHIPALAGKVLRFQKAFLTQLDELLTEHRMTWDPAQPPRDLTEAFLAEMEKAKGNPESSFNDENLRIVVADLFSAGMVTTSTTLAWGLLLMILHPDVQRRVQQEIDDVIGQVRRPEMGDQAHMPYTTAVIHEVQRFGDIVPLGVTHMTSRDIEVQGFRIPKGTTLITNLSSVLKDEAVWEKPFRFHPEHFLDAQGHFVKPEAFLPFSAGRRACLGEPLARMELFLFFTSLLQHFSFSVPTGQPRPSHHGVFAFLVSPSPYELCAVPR

[3] = target: Peroxisome proliferator-activated receptor gamma/Nuclear receptor coactivator 1 (Homo sapiens, UniProt P37231); assay: (§1) TR-FRET dose response biochemical High Throughput Screening assay for agonists of the steroid receptor coactivator 1 (SRC-1) recruitment by the peroxisome proliferator-activated receptor gamma (PPAR gamma): non-selective agonists. [Related pubchem assays (depositor defined):AID1300, AID1808, AID504735, AID631]; type: protein assay
[4] = target: Peroxisome proliferator-activated receptor gamma/Nuclear receptor coactivator 3 (Homo sapiens, UniProt P37231); assay: as §1, with “3 (SRC-3)” for “1 (SRC-1)”, “assays: 1301 (Confirmation screen.), 1048 (Primary screen.)]” for “assays (depositor defined):AID1300, AID1808, AID504735, AID631]”; type: functional
Sequence of Peroxisome proliferator-activated receptor gamma/Nuclear receptor coactivator 3 (P37231 whole entry): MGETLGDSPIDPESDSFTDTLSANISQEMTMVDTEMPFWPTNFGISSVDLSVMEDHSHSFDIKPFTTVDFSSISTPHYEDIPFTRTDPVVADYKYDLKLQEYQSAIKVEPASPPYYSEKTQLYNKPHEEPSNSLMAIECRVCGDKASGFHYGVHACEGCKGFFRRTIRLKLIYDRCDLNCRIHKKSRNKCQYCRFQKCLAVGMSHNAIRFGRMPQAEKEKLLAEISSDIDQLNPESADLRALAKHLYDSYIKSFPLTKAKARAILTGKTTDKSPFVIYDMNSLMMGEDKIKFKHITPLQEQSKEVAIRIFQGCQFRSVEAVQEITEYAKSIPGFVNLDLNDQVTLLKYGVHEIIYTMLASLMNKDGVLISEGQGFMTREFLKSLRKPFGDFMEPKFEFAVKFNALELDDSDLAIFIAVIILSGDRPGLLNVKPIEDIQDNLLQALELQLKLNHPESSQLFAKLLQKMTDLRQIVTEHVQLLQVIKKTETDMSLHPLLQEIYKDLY
Sequence of Peroxisome proliferator-activated receptor gamma/Nuclear receptor coactivator 3 (Q9Y6Q9 whole entry, further chain): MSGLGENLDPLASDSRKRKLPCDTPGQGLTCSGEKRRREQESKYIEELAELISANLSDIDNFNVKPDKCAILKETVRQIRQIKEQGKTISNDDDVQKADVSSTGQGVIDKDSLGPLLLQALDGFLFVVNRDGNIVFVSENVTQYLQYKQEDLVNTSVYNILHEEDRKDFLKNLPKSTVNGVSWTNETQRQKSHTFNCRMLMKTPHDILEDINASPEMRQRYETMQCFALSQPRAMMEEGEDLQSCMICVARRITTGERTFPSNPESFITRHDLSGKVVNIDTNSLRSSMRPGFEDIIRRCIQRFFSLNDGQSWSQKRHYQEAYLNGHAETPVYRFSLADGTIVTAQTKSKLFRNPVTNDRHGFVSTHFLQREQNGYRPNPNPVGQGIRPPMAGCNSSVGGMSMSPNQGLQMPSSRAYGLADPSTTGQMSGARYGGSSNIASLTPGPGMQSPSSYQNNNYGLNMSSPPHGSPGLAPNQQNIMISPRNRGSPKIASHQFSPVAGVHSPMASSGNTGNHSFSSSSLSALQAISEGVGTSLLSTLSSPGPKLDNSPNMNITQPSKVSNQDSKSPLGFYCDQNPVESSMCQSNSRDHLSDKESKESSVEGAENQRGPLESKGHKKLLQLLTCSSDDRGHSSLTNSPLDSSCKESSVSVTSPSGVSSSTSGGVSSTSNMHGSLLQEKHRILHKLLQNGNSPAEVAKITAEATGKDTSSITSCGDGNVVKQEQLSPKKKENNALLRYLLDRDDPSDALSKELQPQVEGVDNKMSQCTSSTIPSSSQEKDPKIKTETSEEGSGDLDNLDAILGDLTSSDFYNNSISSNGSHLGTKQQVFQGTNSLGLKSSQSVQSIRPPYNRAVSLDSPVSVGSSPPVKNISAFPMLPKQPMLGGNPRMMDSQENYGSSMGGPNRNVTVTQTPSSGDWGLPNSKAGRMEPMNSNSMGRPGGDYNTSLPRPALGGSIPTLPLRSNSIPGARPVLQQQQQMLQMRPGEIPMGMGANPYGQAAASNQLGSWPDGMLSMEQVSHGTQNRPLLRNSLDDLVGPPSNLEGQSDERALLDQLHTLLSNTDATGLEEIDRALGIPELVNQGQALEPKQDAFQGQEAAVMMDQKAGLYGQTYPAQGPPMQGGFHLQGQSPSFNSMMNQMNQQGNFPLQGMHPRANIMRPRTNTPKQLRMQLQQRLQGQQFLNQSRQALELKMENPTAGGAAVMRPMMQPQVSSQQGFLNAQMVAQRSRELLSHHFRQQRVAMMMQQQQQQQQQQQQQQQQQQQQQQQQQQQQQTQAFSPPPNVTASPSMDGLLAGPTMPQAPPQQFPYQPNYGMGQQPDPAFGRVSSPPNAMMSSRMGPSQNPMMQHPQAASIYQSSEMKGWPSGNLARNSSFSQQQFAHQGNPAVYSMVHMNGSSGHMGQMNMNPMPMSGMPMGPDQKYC

Large T antigen = Large T antigen (Simian virus 40, UniProt P03070); type: functional, Betapolyomavirus macacae;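 further: Confirmatory-stage PubChem screen for compounds that inhibit SV40 T antigen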
[5] = target: Peroxisome proliferator-activated receptor gamma/Nuclear receptor coactivator 2 (Homo sapiens, UniProt P37231); assay: TR-FRET dose response biochemical High Throughput Screening assay for agonists of the steroid receptor coactivator 2 (SRC-2) recruitment by the peroxisome proliferator-activated receptor gamma (PPAR gamma): non-selective agonists. [Related pubchem assays: 1297, 1032 ]; type: functional
Sequence of Peroxisome proliferator-activated receptor gamma/Nuclear receptor coactivator 2 (P37231 whole entry): as the sequence (P37231 whole entry) above
Sequence of Peroxisome proliferator-activated receptor gamma/Nuclear receptor coactivator 2 (Q15596 whole entry, further chain): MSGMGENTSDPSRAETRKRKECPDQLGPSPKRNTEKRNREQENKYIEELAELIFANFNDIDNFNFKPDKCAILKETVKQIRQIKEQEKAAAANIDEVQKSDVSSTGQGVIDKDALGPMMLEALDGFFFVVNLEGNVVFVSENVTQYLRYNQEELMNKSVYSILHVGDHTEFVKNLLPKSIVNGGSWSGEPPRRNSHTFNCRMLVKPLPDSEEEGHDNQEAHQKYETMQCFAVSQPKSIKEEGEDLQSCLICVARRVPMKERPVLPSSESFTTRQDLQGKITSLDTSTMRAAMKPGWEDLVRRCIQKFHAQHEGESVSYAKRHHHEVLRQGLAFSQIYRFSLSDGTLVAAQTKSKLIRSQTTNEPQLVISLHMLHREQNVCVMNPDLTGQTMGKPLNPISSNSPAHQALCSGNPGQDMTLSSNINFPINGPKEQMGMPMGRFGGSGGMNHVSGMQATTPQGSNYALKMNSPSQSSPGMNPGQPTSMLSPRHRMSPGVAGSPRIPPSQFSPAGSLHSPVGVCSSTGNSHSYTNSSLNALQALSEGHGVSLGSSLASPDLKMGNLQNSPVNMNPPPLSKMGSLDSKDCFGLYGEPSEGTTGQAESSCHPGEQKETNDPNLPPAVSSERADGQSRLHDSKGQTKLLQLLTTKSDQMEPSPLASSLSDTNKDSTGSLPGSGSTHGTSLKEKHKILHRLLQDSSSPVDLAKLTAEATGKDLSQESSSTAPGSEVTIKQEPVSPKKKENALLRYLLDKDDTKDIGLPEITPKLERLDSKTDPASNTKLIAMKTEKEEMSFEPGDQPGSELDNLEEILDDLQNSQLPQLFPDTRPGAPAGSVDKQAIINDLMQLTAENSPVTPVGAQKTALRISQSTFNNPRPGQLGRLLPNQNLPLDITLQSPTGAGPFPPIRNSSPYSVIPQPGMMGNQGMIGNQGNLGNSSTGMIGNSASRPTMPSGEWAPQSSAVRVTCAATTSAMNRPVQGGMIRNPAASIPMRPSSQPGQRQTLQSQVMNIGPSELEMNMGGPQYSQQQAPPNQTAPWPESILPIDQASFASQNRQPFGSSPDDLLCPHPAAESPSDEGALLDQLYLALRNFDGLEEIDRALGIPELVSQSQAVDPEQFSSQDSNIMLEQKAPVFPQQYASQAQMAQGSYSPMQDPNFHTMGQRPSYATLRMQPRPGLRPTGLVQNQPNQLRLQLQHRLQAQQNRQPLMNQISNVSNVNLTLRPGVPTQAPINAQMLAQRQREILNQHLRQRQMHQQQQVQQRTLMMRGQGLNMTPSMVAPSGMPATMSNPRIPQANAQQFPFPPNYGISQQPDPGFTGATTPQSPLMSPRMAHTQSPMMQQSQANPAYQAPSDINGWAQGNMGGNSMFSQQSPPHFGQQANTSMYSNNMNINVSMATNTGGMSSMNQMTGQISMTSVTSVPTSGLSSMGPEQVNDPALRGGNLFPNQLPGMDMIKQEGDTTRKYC

[6] = target: DNA dC->dU-editing enzyme APOBEC-3A (Homo sapiens, UniProt P31941); assay: Dose Response confirmation of small molecule APOBEC3A DNA Deaminase Inhibitors via a fluorescence-based single-stranded DNA deaminase assay. [Related pubchem assays (depositor defined):AID493011, AID493024]; type: functional
[7] = target: DNA dC->dU-editing enzyme APOBEC-3G (Homo sapiens, UniProt Q9HC16); type: functional;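 further: Dose-response counterscreen measuring inhibition of APOBEC3G DNA deaminase activity, run while confirming APOBEC3A inhibitors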
HeLa = assay: HeLa cell cytotoxicity, dose response, cytotoxicity control for MITF activator project, CellTiter-Glo luminescence, cherry-pick samples (AID 540259); type: functional, cell-based; settings: Homo sapiens
[8] = HEp-2 cell cytotoxicity, dose response, cytotoxicity control for RSV inhibitor project, HTS (AID 2410); type: functional; settings: human respiratory syncytial virus
[9] = inhibitors of HIV Env-driven cell fusion, dose response, cherry-pick (AID 652057); type: functional, cell-based
[10] = CEM21 lymphoblast cell cytotoxicity, dose response, cytotoxicity control for viral fusion inhibitor project, CellTiter-Glo luminescence, cherry-picked (AID 652042); type: functional, cell-based;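 further: potency for signal decrease meaning cytotoxicity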
[11] = ZM109 Env clade C HIV-1 fusion inhibitors, dose response, HeLa effector, CEM target cells, luciferase, cherry-pick (AID 652058); type: functional, cell-based
[12] = off-target signal loss in HeLa-CEM21 co-culture – HeLa F-luc CTL cells, cherry-picked, counter-screen for HIV-1 Env fusion inhibitor project, dose response (AID 652040); type: functional, cell-based;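 further: potency for signal decrease marking cytotoxic or nonspecific inhibition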
[13] = inhibitors of clade B AD8 Env fusion, dose response, cell-based, cherry-pick (AID 652062); type: functional;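 further: luciferase signal from cell-cell fusion driven by HIV-1 clade B AD8 Env; potency is for inhibitors of fusion seen as a drop in luminescence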
Cytochrome P450 1A2 = target: T2, Cytochrome P450 1A2 (Homo sapiens, UniProt P05177);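 further: PubChem cytochrome P450 panel assay, CYP1A2 panel member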
T2 sequence (P05177 whole entry): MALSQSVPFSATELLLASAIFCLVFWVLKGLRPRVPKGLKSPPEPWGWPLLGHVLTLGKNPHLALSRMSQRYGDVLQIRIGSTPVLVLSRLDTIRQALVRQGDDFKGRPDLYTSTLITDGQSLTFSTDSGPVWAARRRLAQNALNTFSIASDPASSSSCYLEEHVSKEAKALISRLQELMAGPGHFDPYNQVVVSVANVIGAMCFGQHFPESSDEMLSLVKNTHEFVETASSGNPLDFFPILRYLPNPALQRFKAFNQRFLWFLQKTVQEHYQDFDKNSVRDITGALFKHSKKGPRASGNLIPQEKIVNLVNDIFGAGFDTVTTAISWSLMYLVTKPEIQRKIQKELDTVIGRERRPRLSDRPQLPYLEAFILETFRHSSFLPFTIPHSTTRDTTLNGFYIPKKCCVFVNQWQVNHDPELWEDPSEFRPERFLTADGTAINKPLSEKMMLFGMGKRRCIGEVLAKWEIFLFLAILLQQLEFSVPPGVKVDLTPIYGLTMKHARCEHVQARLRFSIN

Sequence of Alkaline phosphatase, placental type (P05187 whole entry): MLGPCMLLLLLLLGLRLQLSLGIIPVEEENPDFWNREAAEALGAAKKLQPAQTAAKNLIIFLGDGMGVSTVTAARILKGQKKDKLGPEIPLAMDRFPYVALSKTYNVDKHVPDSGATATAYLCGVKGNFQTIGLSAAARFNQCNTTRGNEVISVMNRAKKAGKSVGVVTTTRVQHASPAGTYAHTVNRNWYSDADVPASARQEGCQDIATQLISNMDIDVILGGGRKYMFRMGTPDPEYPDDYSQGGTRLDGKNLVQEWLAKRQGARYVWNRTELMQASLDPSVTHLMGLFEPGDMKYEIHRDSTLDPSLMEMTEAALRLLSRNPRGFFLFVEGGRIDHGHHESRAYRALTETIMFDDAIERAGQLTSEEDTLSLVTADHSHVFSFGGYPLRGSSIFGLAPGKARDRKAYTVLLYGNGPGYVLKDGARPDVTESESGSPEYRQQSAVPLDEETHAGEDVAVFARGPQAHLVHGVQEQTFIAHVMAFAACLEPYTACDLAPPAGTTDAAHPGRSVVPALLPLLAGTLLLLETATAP

C=CCn1c(SCC(=O)c2ccc(O)c(O)c2)nnc1-c1cccc(C)c1
IC50 [1]: 5.59 µM (active)
IC50 [2]: 17.8 µM (active)

COc1ccc(C(=O)CN(C(=O)c2ccc(Cl)cc2)N2C(=O)c3ccccc3C2=O)cc1
AC50 (Cytochrome P450 2C9): 10 µM (inconclusive)
AC50 (Cytochrome P450 2D6): inconclusive

O=c1oc2cc(O)ccc2c2ccccc12
EC50 [3]: > 79.4 µM (inactive)
EC50 [4]: > 79.4 µM (not active)
IC50 (Large T antigen): 38.8 µM (active)
EC50 [5]: > 79.4 µM (not active)

CC1CCN(C(=O)c2ncn(C)c2C(=O)N2CCC(C)CC2)CC1
IC50 [6]: 2.34 µM (active)
IC50 [7]: 2.83 µM (active)

CCOC(=O)C1CCN(C(=O)CSc2cc(=O)n(C)c3ccccc23)CC1
EC50 [3]: > 79.4 µM (inactive)
EC50 [4]: > 79.4 µM (not active)
EC50 [5]: > 79.4 µM (not active)

Cc1ccnc(NC(=O)c2ccc(S(=O)(=O)N3CCC(C)CC3)cc2)c1
AC50 (HeLa): 128 µM (active)

Cc1cccc(C(=O)Nc2sc3c(c2C#N)CCCCC3)c1
AC50 (HeLa): 42.1 µM (active)

Cc1cc(O)oc2nnc(-c3ccccc3)c1-2
CC50 [8]: 34.3 µM (active)
IC50 [1]: > 100 µM (inactive)
IC50 [2]: 0.23 µM (active)

CC(C)Nc1oc(-c2cccc3ccccc23)nc1C#N
AC50 (HeLa): 76.7 µM (active)

COc1ccc2nc(NC(=O)C3CCN(S(=O)(=O)c4cccc5nsnc45)CC3)sc2c1
AC50 [9]: 65.4 µM (active)
AC50 [10]: 41.8 µM (active)
AC50 [11]: 1.9 µM (active)
AC50 [12]: > 70 µM (inactive)
AC50 [13]: 4 µM (active)
AC50 (Cytochrome P450 1A2): 3.16 µM (inconclusive)
AC50 (Cytochrome P450 2D6): inconclusive
